Measured values reported in US20260200924A1, “CANNABINOID RECEPTOR 1 ANTAGONISTS AND USES” (RESEARCH TRIANGLE INSTITUTE, priority 2022, published 2026).

Key:
HLM stability = assay type: in vitro ADME; settings: for HLM HL: HLM half-life; for microsomal CLint: human, liver microsomes, HLM clearance, read-out: HLM Cl
human CB1 [1] = molecular target: T1, human CB1 (Homo sapiens, UniProt P21554); experiment: functional fluorescent calcium mobilization assay, antagonism of CP55,940 (Ke); assay type: cell-based; settings: for Kd: apparent equilibrium dissociation constant, CHO cells expressing human CB1 along with Gqα16, agonist CP55,940, read-out: Ke hCB1
T1 construct: expressed in transfected cells; host or cells: CHO cells co-expressing Gqα16
T1 sequence (P21554 whole entry): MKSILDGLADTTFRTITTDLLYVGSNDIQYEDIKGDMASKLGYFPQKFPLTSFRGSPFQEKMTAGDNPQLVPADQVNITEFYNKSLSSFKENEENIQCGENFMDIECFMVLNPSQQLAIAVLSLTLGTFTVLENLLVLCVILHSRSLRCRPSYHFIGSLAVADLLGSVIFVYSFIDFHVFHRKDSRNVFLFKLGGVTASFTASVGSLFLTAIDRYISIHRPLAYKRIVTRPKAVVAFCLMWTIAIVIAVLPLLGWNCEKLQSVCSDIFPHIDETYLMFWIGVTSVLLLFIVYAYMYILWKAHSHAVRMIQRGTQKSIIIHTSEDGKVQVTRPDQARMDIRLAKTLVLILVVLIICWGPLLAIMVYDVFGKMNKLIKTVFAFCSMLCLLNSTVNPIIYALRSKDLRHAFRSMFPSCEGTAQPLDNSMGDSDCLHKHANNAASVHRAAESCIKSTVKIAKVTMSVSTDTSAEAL
Description: (§1) A functional fluorescent calcium mobilization was performed in CHO cells expressing human CB1 along with Gqα16. In FIG. 1A, a concentration-dependent increase in fluorescence upon treatment with the CB1 agonist CP55,940 is shown (solid line/triangle markers). […] The EC50 values in the presence and absence of the antagonist are used to calculate antagonist apparent equilibrium dissociation constant (Ke). Suppression of basal signaling in the absence of any stimulation/agonism was measured using the same approach. […] Provided data are representative of a minimum of three experiments and were fitted using non-linear regression analyses in GraphPad Prism.

human CB2 = human CB2 (Homo sapiens, UniProt P34972); experiment: radioligand displacement assay using [3H]CP55940 in CHO cell membrane preparations (CB2, for selectivity); assay type: binding; settings: ratio of Ki human CB2 / human CB1
Chain of human CB2 (P34972 whole entry): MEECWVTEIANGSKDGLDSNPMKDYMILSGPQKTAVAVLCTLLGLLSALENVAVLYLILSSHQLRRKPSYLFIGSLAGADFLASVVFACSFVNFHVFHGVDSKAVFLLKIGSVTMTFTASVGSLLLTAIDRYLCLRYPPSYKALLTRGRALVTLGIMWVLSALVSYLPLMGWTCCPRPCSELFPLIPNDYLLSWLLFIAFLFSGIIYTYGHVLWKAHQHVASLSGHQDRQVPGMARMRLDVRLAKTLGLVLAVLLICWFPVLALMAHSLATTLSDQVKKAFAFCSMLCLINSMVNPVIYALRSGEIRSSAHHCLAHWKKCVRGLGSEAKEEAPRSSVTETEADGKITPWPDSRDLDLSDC
Description: (§2) See Ki values above, based on radioligand displacement assay using ^3H-CP55940, a synthetic cannabinoid, (−)-cis-3-[2-hydroxy-4-(1,1-dimethylheptyl)phenyl]-trans-4-(3-hydroxypropyl)cyclohexanol, which is a compound commonly used to study the endocannabinoid system.

human CB1 [2] = molecular target: T1, human CB1; experiment: radioligand displacement assay using [3H]CP55940 in CHO cell membrane preparations; assay type: binding; settings: [3H]CP55940 displacement, CHO cell membranes overexpressing human CB1; read-out: Ki hCB1
Description: as §2

human CB1 [3] = molecular target: T1, human CB1; experiment: suppression of basal signaling in fluorescent calcium mobilization assay (inverse agonism); assay type: cell-based
Description: as §1, with “Gqα16.” for “Gqα16. In FIG. 1A, a concentration-dependent increase in fluorescence upon treatment with the CB1 agonist CP55,940 is shown (solid line/triangle markers).”

C57BL6 male mice = experiment: THC drug discrimination model; assay type: in vivo
Description: Drug discrimination is a behavioral model of the interoceptive effects of a compound. This pharmacologically selective model has high predictive validity, producing a strong correlation between drugs that have sharing discriminative stimulus properties in animals and drugs that humans identify as having similar subjective effects. FIG. 3 provides the results of this study, in which C57BL6 male mice (n=8) were trained to discriminate the reference drug (THC) using a discrimination procedure similar to that described in Wiley et al., Neuropharmacology 75, 145-154 (2013), Van et al., Eur. J. Pharmacol. 615, 102-107, and Wiley et al., J. Pharmacol. Exp. Ther. 354, 328-339 (2015), which are incorporated herein by reference in their entireties. For each session, the percentage of responses on the drug-associated lever and response rate response(s) were calculated.

CB1 receptor = molecular target: T2, CB1 receptor (Mus musculus, UniProt P47746); experiment: PET target engagement with CB1 radiotracer 11C-JHU75528; assay type: in vivo; settings: male and female B6 mice, IP pretreatment
T2 construct: from tissue; host or cells: brain of living B6 mice (in vivo PET)
T2 sequence (P47746 whole entry): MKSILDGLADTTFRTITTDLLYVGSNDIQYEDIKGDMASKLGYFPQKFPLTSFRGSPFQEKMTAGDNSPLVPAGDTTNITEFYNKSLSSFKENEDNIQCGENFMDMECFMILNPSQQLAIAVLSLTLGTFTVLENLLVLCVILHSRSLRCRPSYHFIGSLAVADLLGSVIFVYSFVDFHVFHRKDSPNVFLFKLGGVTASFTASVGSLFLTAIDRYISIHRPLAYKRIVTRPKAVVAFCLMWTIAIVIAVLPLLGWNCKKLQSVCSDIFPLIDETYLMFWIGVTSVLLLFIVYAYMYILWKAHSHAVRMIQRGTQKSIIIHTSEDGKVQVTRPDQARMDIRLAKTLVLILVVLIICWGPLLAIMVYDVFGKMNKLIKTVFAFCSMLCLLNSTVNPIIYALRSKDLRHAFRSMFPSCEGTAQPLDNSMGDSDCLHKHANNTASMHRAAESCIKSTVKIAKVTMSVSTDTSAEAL
Description: FIG. 5A provides a representative image of target specificity of Compound 3 for the CB1 receptor in mice along with quantification. […] The well-characterized CB1 radiotracer ^11C-JHU75528 was used for this purpose. A baseline response for each animal (2 male and 2 female mice) was first established using the vehicle and tracer (~10 MBq in 0.1-0.15 ml volume, tail vein catheter). Following a 48-hr washout, animals were administered Compound 3 via intraperitoneal (IP) injection followed by the probe. PET image acquisition by dynamic scanning was performed for 65 min after the second injection with energy window of 350-700 KeV. […] The PET images were normalized to the standardized uptake value (SUV) unit. Two-tissue compartmental model was applied using the PKIN module in PMOD 4.0 software. See, e.g., FIG. 5B, where quantification of the signal confirmed a blocking effect on cerebral uptake. Compound 3 blocked ^11C-JHU75528 uptake, confirming in vivo activity.

male C57BL/6J mice = experiment: reversal of diet-induced obesity (DIO) in mice; assay type: in vivo; settings: oral, 1x daily, 5 days per week
Description: Preconditioned male C57BL/6J mice were purchased from the Jackson Laboratories (Bar Harbor, Maine) at 18 weeks of age. These animals were maintained either on ad libitum standard diet (SD) with 10% fat (D12450B) or on 60% high fat diet (HFD; D12492) from Research Diets (New Brunswick, NJ.) Animals were dosed by intragastric gavage once daily Monday-Friday (5 days per week) with either vehicle (0.5% sodium carboxymethylcellulose with 1% NMP and 0.3% Tween 80 in de-ionized water) or Compound 3 suspended in the vehicle. Body weights were recorded at regular intervals. Organs were removed and processed as has been described in the legend of FIG. 4. Biomarkers of efficacy were measured including circulating enzymes, liver weight and liver adiposity as indicated.
Data were reported as mean (FIG. 4A) or mean and range (FIGS. 4B and 4C). […] Hepatic statosis was reduced, as assessed using Oil Red O staining (FIG. 4G), with representative images shown as FIGS. 4H, 4I, and 4J. Significance was calculated using ANOVA with Fisher's test (p<0.05*, 0.01**, 0.001***, 0.0001****).

Row | SMILES | HLM HL (HLM stability) [min] | microsomal CLint (HLM stability) [µL/min/mg] | Kd (human CB1 [1]) [nM] | Selectivity Ki (CB2/CB1) (human CB2) | Ki (human CB1 [2]) [nM] | further results
1 | O=C(Cc1ccccc1F)NC1CCN(c2ncnc3c2nc(-c2ccccc2Cl)n3-c2ccc(Cl)cc2)CC1 [Compound 1, N-{1-[8-(2-Chlorophenyl)-9-(4-chlorophenyl)-9H-purin-6-yl]piperidin-4-yl}-2-(2-fluorophenyl)acetamide] | 146 | 9 | 1 | 110 | 1.5 | –
2 | O=C(Cc1ccc(F)cc1)NC1CCN(c2ncnc3c2nc(-c2ccccc2Cl)n3-c2ccc(Cl)cc2)CC1 [Compound 2, N-{1-[8-(2-Chlorophenyl)-9-(4-chlorophenyl)-9H-purin-6-yl]piperidin-4-yl}-2-(4-fluorophenyl)acetamide] | 150 | 8 | 1 | 210 | 1.4 | –
3 | O=C(Cc1ccc(F)cc1F)NC1CCN(c2ncnc3c2nc(-c2ccccc2Cl)n3-c2ccc(Cl)cc2)CC1 [Compound 3, N-{1-[8-(2-Chlorophenyl)-9-(4-chlorophenyl)-9H-purin-6-yl]piperidin-4-yl}-2-(2,4-difluorophenyl)acetamide] | 133 | 9 | 0.8 | 510 | 1.1 | effect on basal signaling (inverse agonism) (human CB1 [3]; absence of any stimulation/agonism): partial inverse agonist; Emax (human CB1 [3]; read-out: partial suppression of maximal response (basal signaling), % of rimonabant Emax): ~30%; response rates (C57BL6 male mice; compared to controls): not significantly altered; maximum inhibition of THC drug discrimination (C57BL6 male mice; compared with rimonabant): comparable to that of rimonabant; THC drug discrimination (C57BL6 male mice; mice trained on 5.6 mpk THC, 3, 5.6 and 10 mpk antagonist): antagonize; 11C-JHU75528 cerebral uptake (PET) (CB1 receptor): blocked; body weight (male C57BL/6J mice): significantly reduced; circulating transaminase ALT (male C57BL/6J mice): reduce; circulating transaminase AST (male C57BL/6J mice): reduce; hepatic cholesterol content (male C57BL/6J mice): decrease; hepatic steatosis (Oil Red O staining) (male C57BL/6J mice): reduced; epididymal adipose weight (male C57BL/6J mice; normalized to tibia length): significantly reduced; liver weight (male C57BL/6J mice; normalized to tibia length): significantly reduced; antagonism: shift of the CP55,940 curve (human CB1 [1]; pre-incubation with antagonist): rightward shift
4 | CC1(NC(=O)Cc2ccccc2F)CCN(c2ncnc3c2nc(-c2ccccc2Cl)n3-c2ccc(Cl)cc2)CC1 [Compound 4, N-{1-[8-(2-Chlorophenyl)-9-(4-chlorophenyl)-9H-purin-6-yl]-4-methylpiperidin-4-yl}-2-(2-fluorophenyl)acetamide] | – | – | 3.8 | – | – | –
5 | CC1(NC(=O)Cc2ccc(F)cc2)CCN(c2ncnc3c2nc(-c2ccccc2Cl)n3-c2ccc(Cl)cc2)CC1 [Compound 5, N-{1-[8-(2-Chlorophenyl)-9-(4-chlorophenyl)-9H-purin-6-yl]-4-methylpiperidin-4-yl}-2-(4-fluorophenyl)acetamide] | – | – | 1.8 | – | – | –
